# Test results from patent US8959984B2, “Proteome-wide quantification of small molecule binding to cellular target proteins” (priority 2007, dated 2015).
# pKi: −log10 of the molar value.
# Assays:
# Test in all cases: binding to AX14596 beads (HeLa lysate, SILAC MS)
# Parameters in all cases: endogenous in cells; host or cells: HeLa S3
# SNRPG = SNRPG (Homo sapiens, UniProt P62308)
# Procedure: (§1) Differentially SILAC-encoded cell lysates were either incubated with the inhibitor beads displaying immobilized AX14596 or control resin devoid of ligand. In parallel, the supernatant from the first binding step was subjected to a second incubation with the AX14596 resin (FIG. 4). The resulting three elution fractions were combined, resolved by gel electrophoresis, proteolytically digested and the relative abundance of the retained proteins quantified. Proteins showing considerable binding to the control resin were identified as non-specific interactors and therefore not considered further. […] These target-specific ratios were similar in “label switch” experiments (FIGS. 6a and 6c). The binding equilibrium was determined in parallel control SILAC experiments as well as the excess of the immobilized compound over its cellular targets, the excess preferably being a molar excess (FIG. 7 and FIG. 8).
# (§2) Cysteine carbamidomethylation was set as a fixed modification and N-acetyl protein and oxidized methionine were allowed as variable modifications. Spectra that were determined to result from heavy labeled peptides in the pre-search detection of SILAC partners by MaxQuant were searched with the fixed modifications Lys^4, Lys^8, Arg^6 and Arg^10, whereas MS/MS spectra for which no SILAC state could be assigned before database searching were searched with Lys^4, Lys^8, Arg^6 and Arg^10 as variable modifications. The mass tolerance was set to 5 ppm for monoisotopic precursor ions and to 0.5 Da for MS/MS peaks. The minimum peptide length was set to 6 amino acids and up to three missed cleavages and three isotopically labeled amino acids were permitted per peptide. The accepted false discovery rate (FDR) was 1% for the proteins and peptides. The cut-off for the posterior error probability (PEP) of peptides was set to 10%. Peptide PEPs were determined by generating Mascot score and peptide-length-dependent histograms for both the forward and the reverse hits and then deriving the probability of a false identification for a given top-scoring peptide using Bayes' theorem. The PEPs of peptides belonging to the same proteins were then multiplied. Each peptide sequence was considered only once with the lowest PEP determined in case of multiple sequencing of the same isotopic pattern or of peptide species with different SILAC, charge or modification states. Proteins were then sorted according to their products of their peptide PEPs and included until a FDR of 1% was reached according to the fraction of reverse proteins contained in the protein list. In addition to the FDR threshold applied for protein identification, proteins were only included when they were identified with at least two peptides (of which one was required to be unique for the protein) and quantified if at least on quantifiable SILAC pair was associated with them. Outliers were not removed as protein ratios were calculated as the median instead of the average of all peptide ratios. For peptides shared among different identified proteins, SILAC ratios were only considered for the ratio of the protein identified with the highest number of unique peptides. Protein ratios for the different in vitro association experiments were corrected for the initial SILAC pooling ratio, which was determined from the median of protein ratios in pooled SILAC-encoded cell extracts.
# RPL7A = RPL7A (Homo sapiens, UniProt P62424)
# Procedure: as §1, §2
# NUDT12 = NUDT12 (Homo sapiens, UniProt Q9BQG2)
# Sequence of NUDT12 (Q9BQG2 whole entry): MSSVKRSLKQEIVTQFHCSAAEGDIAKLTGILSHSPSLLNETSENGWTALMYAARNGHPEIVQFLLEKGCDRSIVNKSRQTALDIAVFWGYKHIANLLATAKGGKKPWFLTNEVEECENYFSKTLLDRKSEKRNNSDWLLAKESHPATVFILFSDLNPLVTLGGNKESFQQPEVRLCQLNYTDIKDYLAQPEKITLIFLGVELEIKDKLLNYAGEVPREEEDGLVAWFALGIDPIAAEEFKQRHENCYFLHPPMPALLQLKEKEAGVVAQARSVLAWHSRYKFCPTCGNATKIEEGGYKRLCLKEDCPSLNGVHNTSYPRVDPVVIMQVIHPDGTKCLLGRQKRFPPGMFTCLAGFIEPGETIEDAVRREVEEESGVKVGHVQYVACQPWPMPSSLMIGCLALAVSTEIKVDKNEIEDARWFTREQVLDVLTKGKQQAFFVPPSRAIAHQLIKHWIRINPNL
# Procedure: as §1, §2
# RPL7 = RPL7 (Homo sapiens, UniProt P18124)
# Procedure: as §1, §2
# NAMPT = NAMPT (Homo sapiens, UniProt P43490)
# Sequence of NAMPT (P43490 whole entry): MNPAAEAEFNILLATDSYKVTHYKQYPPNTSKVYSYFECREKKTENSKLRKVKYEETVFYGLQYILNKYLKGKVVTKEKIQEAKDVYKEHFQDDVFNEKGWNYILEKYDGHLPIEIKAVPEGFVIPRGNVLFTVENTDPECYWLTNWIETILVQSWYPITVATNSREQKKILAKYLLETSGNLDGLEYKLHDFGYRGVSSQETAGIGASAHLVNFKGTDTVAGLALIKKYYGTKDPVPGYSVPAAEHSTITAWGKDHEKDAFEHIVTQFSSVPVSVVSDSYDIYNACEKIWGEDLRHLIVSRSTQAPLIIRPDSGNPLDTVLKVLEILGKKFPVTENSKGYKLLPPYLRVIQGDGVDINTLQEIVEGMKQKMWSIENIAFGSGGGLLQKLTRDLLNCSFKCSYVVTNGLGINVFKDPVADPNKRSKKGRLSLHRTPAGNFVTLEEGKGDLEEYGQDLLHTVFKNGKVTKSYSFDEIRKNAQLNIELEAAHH
# Procedure: as §1, §2
# CaMK2d (CAMK2D) = CaMK2d (CAMK2D) (Homo sapiens, UniProt Q13557)
# Sequence of CaMK2d (CAMK2D) (Q13557 whole entry): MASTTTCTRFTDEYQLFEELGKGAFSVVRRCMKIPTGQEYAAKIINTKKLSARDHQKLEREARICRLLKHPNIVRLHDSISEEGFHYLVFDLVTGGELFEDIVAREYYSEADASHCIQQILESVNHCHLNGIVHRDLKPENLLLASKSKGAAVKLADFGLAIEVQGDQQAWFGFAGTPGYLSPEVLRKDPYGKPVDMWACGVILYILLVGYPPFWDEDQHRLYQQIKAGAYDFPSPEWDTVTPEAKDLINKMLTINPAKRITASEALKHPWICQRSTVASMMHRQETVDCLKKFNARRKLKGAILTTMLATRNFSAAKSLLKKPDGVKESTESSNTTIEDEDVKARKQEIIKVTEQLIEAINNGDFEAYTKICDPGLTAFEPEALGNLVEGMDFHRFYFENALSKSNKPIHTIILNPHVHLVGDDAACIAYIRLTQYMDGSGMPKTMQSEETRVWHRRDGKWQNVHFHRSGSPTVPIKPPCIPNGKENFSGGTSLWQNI
# Procedure: as §1, §2
# MNK1 (MKNK1) = MNK1 (MKNK1) (Homo sapiens, UniProt Q9BUB5)
# Sequence of MNK1 (MKNK1) (Q9BUB5 whole entry): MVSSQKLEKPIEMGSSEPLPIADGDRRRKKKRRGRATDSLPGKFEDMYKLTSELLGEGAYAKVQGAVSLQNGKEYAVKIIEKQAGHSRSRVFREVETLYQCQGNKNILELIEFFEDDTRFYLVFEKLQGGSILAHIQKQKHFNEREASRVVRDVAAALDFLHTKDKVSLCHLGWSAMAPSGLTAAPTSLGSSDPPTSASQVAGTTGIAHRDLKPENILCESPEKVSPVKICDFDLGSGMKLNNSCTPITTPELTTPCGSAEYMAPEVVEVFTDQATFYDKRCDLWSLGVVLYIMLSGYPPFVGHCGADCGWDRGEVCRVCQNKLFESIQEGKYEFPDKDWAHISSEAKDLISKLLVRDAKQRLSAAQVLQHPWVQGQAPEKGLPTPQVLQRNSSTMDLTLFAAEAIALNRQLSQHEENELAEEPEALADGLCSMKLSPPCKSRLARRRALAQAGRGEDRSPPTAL
# Procedure: as §1, §2
# SPR = SPR (Homo sapiens, UniProt P35270)
# Sequence of SPR (P35270 whole entry): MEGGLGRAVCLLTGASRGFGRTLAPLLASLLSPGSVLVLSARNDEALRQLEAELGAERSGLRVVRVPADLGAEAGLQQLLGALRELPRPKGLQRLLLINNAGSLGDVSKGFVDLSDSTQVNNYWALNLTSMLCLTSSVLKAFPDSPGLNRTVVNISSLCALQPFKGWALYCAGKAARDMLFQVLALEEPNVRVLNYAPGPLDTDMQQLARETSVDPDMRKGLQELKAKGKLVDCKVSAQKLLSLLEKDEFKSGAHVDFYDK
# Procedure: as §1, §2
# RPL27A = RPL27A (Homo sapiens, UniProt P46776)
# Procedure: as §1, §2
# CK1e (CSNK1E) = CK1e (CSNK1E) (Homo sapiens, UniProt P49674)
# Sequence of CK1e (CSNK1E) (P49674 whole entry): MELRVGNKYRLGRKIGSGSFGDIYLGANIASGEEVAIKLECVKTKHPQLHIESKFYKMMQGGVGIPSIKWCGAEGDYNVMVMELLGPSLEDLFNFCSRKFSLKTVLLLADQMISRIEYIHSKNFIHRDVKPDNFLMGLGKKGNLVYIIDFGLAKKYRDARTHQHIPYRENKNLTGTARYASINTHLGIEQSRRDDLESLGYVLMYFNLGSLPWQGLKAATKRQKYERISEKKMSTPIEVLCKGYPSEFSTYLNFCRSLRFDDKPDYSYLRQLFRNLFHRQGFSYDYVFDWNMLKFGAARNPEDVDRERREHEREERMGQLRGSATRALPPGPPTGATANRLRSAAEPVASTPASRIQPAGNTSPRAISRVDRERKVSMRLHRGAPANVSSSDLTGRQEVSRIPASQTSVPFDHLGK
# Procedure: as §1, §2
# Sequence of SNRPG (P62306 whole entry): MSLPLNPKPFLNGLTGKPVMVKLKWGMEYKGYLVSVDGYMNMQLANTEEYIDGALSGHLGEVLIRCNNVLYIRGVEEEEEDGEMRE
# Sequence of SNRPG (P62304 whole entry, further chain): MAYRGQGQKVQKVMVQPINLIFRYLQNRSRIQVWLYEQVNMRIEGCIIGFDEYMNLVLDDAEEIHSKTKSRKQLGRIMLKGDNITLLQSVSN
# Sequence of SNRPG (P62308 whole entry): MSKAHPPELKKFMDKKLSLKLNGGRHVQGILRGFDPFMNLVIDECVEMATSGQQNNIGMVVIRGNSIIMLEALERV
smiles,measurement,setting,value
COc1cc2ncnc(Nc3ccc(F)c(Cl)c3)c2cc1OCCCN [AX14596],pKi,SNRPG,4.06
same,r (3 mg/1 mg lysate),SNRPG,2.54
same,rAVERAGE (2. inc/1. inc),SNRPG,0.47
same,rAVERAGE (control/1. inc),SNRPG,0.16
same,pKi,RPL7A,2.68
same,r (3 mg/1 mg lysate),RPL7A,5.23
same,rAVERAGE (2. inc/1. inc),RPL7A,0.95
same,rAVERAGE (control/1. inc),RPL7A,0.17
same,pKi,NUDT12,4.79
same,r (3 mg/1 mg lysate),NUDT12,2.24
same,r (5 h/2.5 h inc. time),NUDT12,0.91
same,rAVERAGE (2. inc/1. inc),NUDT12,0.14
same,rAVERAGE (control/1. inc),NUDT12,0.04
same,pKi,RPL7,2.64
same,r (3 mg/1 mg lysate),RPL7,1.82
same,rAVERAGE (2. inc/1. inc),RPL7,0.96
same,rAVERAGE (control/1. inc),RPL7,0.19
same,pKi,NAMPT,4.39
same,r (3 mg/1 mg lysate),NAMPT,7.48
same,r (5 h/2.5 h inc. time),NAMPT,0.39
same,rAVERAGE (2. inc/1. inc),NAMPT,0.29
same,rAVERAGE (control/1. inc),NAMPT,0.04
same,pKi,CaMK2d (CAMK2D),4.06
same,r (3 mg/1 mg lysate),CaMK2d (CAMK2D),2.39
same,r (5 h/2.5 h inc. time),CaMK2d (CAMK2D),1.13
same,rAVERAGE (2. inc/1. inc),CaMK2d (CAMK2D),0.47
same,rAVERAGE (control/1. inc),CaMK2d (CAMK2D),0.07
same,pKi,MNK1 (MKNK1),3.04
same,r (3 mg/1 mg lysate),MNK1 (MKNK1),2.94
same,r (5 h/2.5 h inc. time),MNK1 (MKNK1),1.05
same,rAVERAGE (2. inc/1. inc),MNK1 (MKNK1),0.90
same,rAVERAGE (control/1. inc),MNK1 (MKNK1),0.04
same,pKi,SPR,2.73
same,r (3 mg/1 mg lysate),SPR,2.91
same,r (5 h/2.5 h inc. time),SPR,2.43
same,rAVERAGE (2. inc/1. inc),SPR,0.95
same,rAVERAGE (control/1. inc),SPR,0.02
same,pKi,RPL27A,2.53
same,r (3 mg/1 mg lysate),RPL27A,1.75
same,r (5 h/2.5 h inc. time),RPL27A,1.12
same,rAVERAGE (2. inc/1. inc),RPL27A,0.97
same,rAVERAGE (control/1. inc),RPL27A,0.06
same,pKi,CK1e (CSNK1E),2.39
same,r (3 mg/1 mg lysate),CK1e (CSNK1E),2.87
same,r (5 h/2.5 h inc. time),CK1e (CSNK1E),1.23
same,rAVERAGE (2. inc/1. inc),CK1e (CSNK1E),0.98
same,rAVERAGE (control/1. inc),CK1e (CSNK1E),0.09
